Laboratory results reported in US20240277620A1, “MIXED SOLVENTS FOR SPRAY DRYING FOR PREPARATION OF AMORPHOUS SOLID DISPERSIONS” (Lonza Bend Inc., priority 2021, published 2024).
“And” between values parts separate entries of the source, which are not always exact repeats. Equal entries are not always repeated. Each block holds one compound with its values, some of them ahead of it.

Assay: Determination of saturation concentration of drug in solvent (TGA of filtered saturated solution)

Concentration (EtOAc:EtOH 0:100, 25° C.): 1690 µg/mL
Concentration (wt %) (EtOAc:EtOH 0:100, 25° C.): 0.214 wt %
Concentration (EtOAc:EtOH 15:85, 25° C.): 2380 µg/mL
Concentration (wt %) (EtOAc:EtOH 15:85, 25° C.): 0.30 wt %
Concentration (EtOAc:EtOH 40:60, 25° C.): 3400 µg/mL
Concentration (wt %) (EtOAc:EtOH 40:60, 25° C.): 0.408 wt %
Concentration (EtOAc:EtOH 55:45, 25° C.): 4690 µg/mL
Concentration (wt %) (EtOAc:EtOH 55:45, 25° C.): 0.518 wt %
Concentration (EtOAc:EtOH 70:30, 25° C.): 3390 µg/mL
Concentration (wt %) (EtOAc:EtOH 70:30, 25° C.): 0.392 wt %
Concentration (EtOAc:EtOH 85:15, 25° C.): 2030 µg/mL
Concentration (wt %) (EtOAc:EtOH 85:15, 25° C.): 0.230 wt %
Concentration (EtOAc:EtOH 100:0, 25° C.): 690 µg/mL
Concentration (wt %) (EtOAc:EtOH 100:0, 25° C.): 0.076 wt %
Solubility (wt %) (MeOAc/MeOH, MeOH 0 wt %): 0.091 wt %
Solubility (wt %) (MeOAc/MeOH, MeOH 15 wt %): 0.496 wt %
Solubility (wt %) (MeOAc/MeOH, MeOH 30 wt %): 0.763 wt %
Solubility (wt %) (MeOAc/MeOH, MeOH 45 wt %): 0.962 wt %
Solubility (wt %) (MeOAc/MeOH, MeOH 60 wt %): 0.868 wt %
Solubility (wt %) (MeOAc/MeOH, MeOH 85 wt %): 0.486 wt %
Solubility (wt %) (MeOAc/MeOH, MeOH 100 wt %): 0.371 wt %
Concentration (MeOAc:MeOH 0:100, 25° C.): 2940 µg/mL
Concentration (wt %) (MeOAc:MeOH 0:100, 25° C.): 0.371 wt %
Concentration (MeOAc:MeOH 15:85, 25° C.): 3940 µg/mL
Concentration (wt %) (MeOAc:MeOH 15:85, 25° C.): 0.486 wt %
Concentration (MeOAc:MeOH 40:60, 25° C.): 7320 µg/mL
Concentration (wt %) (MeOAc:MeOH 40:60, 25° C.): 0.868 wt %
Concentration (MeOAc:MeOH 55:45, 25° C.): 8310 µg/mL
Concentration (wt %) (MeOAc:MeOH 55:45, 25° C.): 0.961 wt %
Concentration (MeOAc:MeOH 70:30, 25° C.): 6760 µg/mL
Concentration (wt %) (MeOAc:MeOH 70:30, 25° C.): 0.763 wt %
Concentration (MeOAc:MeOH 85:15, 25° C.): 4510 µg/mL
Concentration (wt %) (MeOAc:MeOH 85:15, 25° C.): 0.496 wt %
Concentration (MeOAc:MeOH 100:0, 25° C.): 850 µg/mL
Concentration (wt %) (MeOAc:MeOH 100:0, 25° C.): 0.091 wt %
Structure (SMILES): Cc1cn(-c2cc(NC(=O)c3ccc(C)c(Nc4nccc(-c5cccnc5)n4)c3)cc(C(F)(F)F)c2)cn1 [Nilotinib, nilotinib]

Solubility (wt %) (EtOAc/MeOH, MeOH 0 wt %): 0.065 wt % and 0.091 wt %
Solubility (wt %) (EtOAc/MeOH, MeOH 15 wt %): 0.500 wt %
Solubility (wt %) (EtOAc/MeOH, MeOH 20 wt %): 0.430 wt %
Solubility (wt %) (EtOAc/MeOH, MeOH 30 wt %): 0.847 wt %
Solubility (wt %) (EtOAc/MeOH, MeOH 35 wt %): 0.593 wt %
Solubility (wt %) (EtOAc/MeOH, MeOH 45 wt %): 1.028 wt %
Solubility (wt %) (EtOAc/MeOH, MeOH 50 wt %): 0.497 wt %
Solubility (wt %) (EtOAc/MeOH, MeOH 60 wt %): 0.878 wt %
Solubility (wt %) (EtOAc/MeOH, MeOH 65 wt %): 0.481 wt %
Solubility (wt %) (EtOAc/MeOH, MeOH 80 wt %): 0.370 wt %
Solubility (wt %) (EtOAc/MeOH, MeOH 85 wt %): 0.532 wt %
Solubility (wt %) (EtOAc/MeOH, MeOH 100 wt %): 0.153 wt % and 0.371 wt %
Concentration (EtOAc:EtOH 0:100, 25° C.): 1030 µg/mL
Concentration (wt %) (EtOAc:EtOH 0:100, 25° C.): 0.130 wt %
Concentration (EtOAc:EtOH 15:85, 25° C.): 1740 µg/mL
Concentration (wt %) (EtOAc:EtOH 15:85, 25° C.): 0.22 wt %
Concentration (EtOAc:EtOH 40:60, 25° C.): 2670 µg/mL
Concentration (wt %) (EtOAc:EtOH 40:60, 25° C.): 0.321 wt %
Concentration (EtOAc:EtOH 55:45, 25° C.): 2890 µg/mL
Concentration (wt %) (EtOAc:EtOH 55:45, 25° C.): 0.341 wt %
Concentration (EtOAc:EtOH 70:30, 25° C.): 3200 µg/mL
Concentration (wt %) (EtOAc:EtOH 70:30, 25° C.): 0.370 wt %
Concentration (EtOAc:EtOH 85:15, 25° C.): 2170 µg/mL
Concentration (wt %) (EtOAc:EtOH 85:15, 25° C.): 0.246 wt %
Concentration (EtOAc:EtOH 100:0, 25° C.): 360 µg/mL
Concentration (wt %) (EtOAc:EtOH 100:0, 25° C.): 0.040 wt %
Solubility (wt %) (MeOAc/MeOH, MeOH 0 wt %): 0.065 wt %
Solubility (wt %) (MeOAc/MeOH, MeOH 20 wt %): 0.403 wt %
Solubility (wt %) (MeOAc/MeOH, MeOH 35 wt %): 0.482 wt %
Solubility (wt %) (MeOAc/MeOH, MeOH 50 wt %): 0.426 wt %
Solubility (wt %) (MeOAc/MeOH, MeOH 65 wt %): 0.341 wt %
Solubility (wt %) (MeOAc/MeOH, MeOH 80 wt %): 0.250 wt %
Solubility (wt %) (MeOAc/MeOH, MeOH 100 wt %): 0.153 wt %
Concentration (MeOAc:MeOH 0:100, 25° C.): 1210 µg/mL
Concentration (wt %) (MeOAc:MeOH 0:100, 25° C.): 0.153 wt %
Concentration (MeOAc:MeOH 20:80, 25° C.): 2220 µg/mL
Concentration (wt %) (MeOAc:MeOH 20:80, 25° C.): 0.250 wt %
Concentration (MeOAc:MeOH 35:65, 25° C.): 2850 µg/mL
Concentration (wt %) (MeOAc:MeOH 35:65, 25° C.): 0.341 wt %
Concentration (MeOAc:MeOH 50:50, 25° C.): 3650 µg/mL
Concentration (wt %) (MeOAc:MeOH 50:50, 25° C.): 0.426 wt %
Concentration (MeOAc:MeOH 65:35, 25° C.): 4230 µg/mL
Concentration (wt %) (MeOAc:MeOH 65:35, 25° C.): 0.482 wt %
Concentration (MeOAc:MeOH 80:20, 25° C.): 3630 µg/mL
Concentration (wt %) (MeOAc:MeOH 80:20, 25° C.): 0.403 wt %
Concentration (MeOAc:MeOH 100:0, 25° C.): 610 µg/mL
Concentration (wt %) (MeOAc:MeOH 100:0, 25° C.): 0.065 wt %
Structure (SMILES): O=C(O)c1cc(/N=N/c2ccc(S(=O)(=O)Nc3ccccn3)cc2)ccc1O [Sulfasalazine, sulfasalazine]
